Assay results reported in patent publication US20090318461A1, “CRYSTALLINE POLYMORPHISM OF 5-METHYL-2-(PIPERAZIN-1-YL) BENZENESULFONIC ACID” (priority 2006, published 2009).
Blank lines part the entries; values can stand above or below the molecule they belong to.

Key:
[1] = Measurement of moisture sorption at each relative humidity (water vapor sorption apparatus SGA-100); type: physicochemical; details: for moisture sorption (weight increase) at relative humidity 50%: 50% RH; for weight change when humidity was reduced from 95% RH to 5% RH after moisture absorption: humidity decrease 95% RH to 5% RH; for hygroscopicity: from moisture sorption isotherm
Method: In the present invention, when moisture sorption at each relative humidity becomes not more than 0.03% in 5 min, or when 3 hours have passed at each relative humidity, the range of relative humidity being from 0% to 95%, the humidity is increased or decreased at 5% intervals, and the moisture sorption isotherms at each relative humidity is obtained gravimetrically by measuring the mass change of a sample.
The above-mentioned moisture sorption can be measured using, for example, SGA-100 type water vapor sorption apparatus (manufactured by VTI) as shown in the Examples. While the error in the relative humidity values depends on the performance of the apparatus, it is about ±1% using this apparatus.
The “moisture sorption” in the present invention refers to the values calculated by the following equation:
moisture sorption (%)=((RM−DM)/DM))*100
wherein DM: sample weight (mg) after sufficient drying at relative humidity 0% RM: sample weight (mg) in the equilibrium state at various relative humidities
For moisture sorption isotherms, when weight variation under each relative humidity condition becomes not more than 0.03% in 5 min, or when 3 hours have passed at each relative humidity, the range of relative humidity being from 0% to 95%, the humidity is increased or decreased at 5% intervals, and the moisture sorption isotherms at each relative humidity is obtained gravimetrically by measuring the mass change of a sample. The “RH” in the preset Examples means “relative humidity”.
5-Methyl-2-(piperazin-1-yl)benzenesulfonic acid monohydrate was dried for 60 min by heating in a sample booth at 80° C. under nitrogen substitution. The sample was used as sample 7 (type-I anhydrate crystal), and measured for moisture sorption from 5% RH.
The sample 2 (type-II anhydrate crystal) obtained in Example 2 was dried for 60 min by heating in a sample booth at 80° C. under nitrogen substitution, and measured for moisture sorption from 5% RH.

[2] = Thermal analysis (DSC822e) of monohydrate crystals; type: physicochemical; details: 25-300° C., 20° C./min, dry nitrogen gas
Method: In Examples 3, 4 and Experimental Examples 5, 6, each crystal forms was confirmed by powder X-ray diffractometer (manufactured by Bruker) GADDS detector system and thermal analysis equipment (manufactured by Mettler-Toledo) DSC822e system.
For thermal analysis, the measurement was performed in a dry nitrogen gas stream (50 mL/min) from 25° C. to 300° C. at a temperature rise rate of 20° C./min.
Using the solids obtained in Examples 3 and 4 as sample 8 (type-II monohydrate crystal) and sample 9 (type-III monohydrate crystal), respectively, the thermal analysis was performed under the following conditions.
apparatus: DSC822e manufactured by Metter-Toledo temperature rise rate: 20° C./min atmosphere: dry nitrogen gas 50 mL/min measurement temperature: 25-300° C.

[3] = tested on: cardiomyocytes; details: cited from earlier work
[4] = humidity increase from 5% RH to 95% RH

moisture sorption (weight increase) at relative humidity 50% ([1]; humidity increase from 5% RH to 95% RH, listed as sample 7): about 6.0%
weight change when humidity was reduced from 95% RH to 5% RH after moisture absorption [1]: weight change was not observed
relative humidity from which moisture absorption was shown [1, 4]: 10 % RH
Compound: Cc1ccc(N2CCNCC2)c(S(=O)(=O)O)c1 [type-I anhydrate crystal, 5-methyl-2-(piperazin-1-yl)benzenesulfonic acid anhydrate]

crystal stability by thermal analysis (no noticeable endothermic and exothermic peaks up to around 80° C.) [2]: stable
Compound: Cc1ccc(N2CCNCC2)c(S(=O)(=O)O)c1 [type-II monohydrate crystal, 5-methyl-2-(piperazin-1-yl)benzenesulfonic acid monohydrate]

Compound: Cc1ccc(N2CCNCC2)c(S(=O)(=O)O)c1 [compound A, 5-methyl-2-(piperazin-1-yl)benzenesulfonic acid]
suppression of excessive influx of calcium ions into cardiomyocytes [3]: remarkably suppresses

moisture sorption in the range of 0-50% RH ([1]; 0-50% RH, humidity increase from 5% RH to 95% RH): about 2.0%
moisture sorption (weight increase) at relative humidity 50% [1, 4]: not more than 2%
weight increase around 60% RH ([1]; around 60% RH, humidity increase from 5% RH to 95% RH): about 6.5%
hygroscopicity [1]: less hygroscopic
hygroscopicity ([1]; listed as sample 2): hardly present
weight change when humidity was reduced from 95% RH to 5% RH after moisture absorption [1]: weight change was not observed
Compound: Cc1ccc(N2CCNCC2)c(S(=O)(=O)O)c1 [type-II anhydrate crystal, 5-methyl-2-(piperazin-1-yl)benzenesulfonic acid anhydrate]
